Assay results as given in the NIST ThermoML archive (doi:10.1016/j.jct.2012.10.008).

Legend:
[1] = Liquid; for viscosity: Falling or rolling sphere viscometry; for mass density: Vibrating tube method
[2] = refractive index (Na D-line) (dimensionless); conditions: 298.15 K; 101.33 kPa; Liquid; Standard Abbe refractometry
[3] = xn = mol fraction of the nth substance listed; conditions: 101 kPa, Liquid, x2 = 0; for viscosity: Falling or rolling sphere viscometry; for mass density: Vibrating tube method

CCCCO [butan-1-ol]
[1]
Conditions	mass density, 293.15 K [kg/m3]	mass density, 298.15 K [kg/m3]	mass density, 303.15 K [kg/m3]	mass density, 308.15 K [kg/m3]	mass density, 313.15 K [kg/m3]	viscosity, 293.15 K [mPa·s]	viscosity, 298.15 K [mPa·s]	viscosity, 303.15 K [mPa·s]	viscosity, 308.15 K [mPa·s]	viscosity, 313.15 K [mPa·s]
101 kPa	–	805.94	–	–	–	–	–	–	–	–
101.33 kPa	809.76	805.96	802.11	798.18	794.39	2.942	2.572	2.265	2.002	1.787

Conditions	refractive index
[2]	1.3972

CO [methanol] + CCCC[NH3+].O=[N+]([O-])[O-]
[3]
Conditions	mass density [kg/m3]	viscosity [mPa·s]
293.15 K	791.23	0.588
298.15 K	786.54	0.552
303.15 K	781.81	0.516
308.15 K	777.05	0.486
313.15 K	772.25	0.461

CCO [ethanol] + CCCC[NH3+].O=[N+]([O-])[O-]
[3]
Conditions	mass density [kg/m3]	viscosity [mPa·s]
293.15 K	789.5	1.218
298.15 K	785.39	1.134
303.15 K	780.69	1.01
308.15 K	776.35	0.907
313.15 K	772.11	0.836

CCO [ethanol]
[1]
Conditions	mass density, 293.15 K [kg/m3]	mass density, 298.15 K [kg/m3]	mass density, 303.15 K [kg/m3]	mass density, 308.15 K [kg/m3]	mass density, 313.15 K [kg/m3]	viscosity, 293.15 K [mPa·s]	viscosity, 298.15 K [mPa·s]	viscosity, 303.15 K [mPa·s]	viscosity, 308.15 K [mPa·s]	viscosity, 313.15 K [mPa·s]
101 kPa	–	–	–	–	–	–	–	1.01	0.907	–
101.33 kPa	789.5	785.39	780.69	776.35	772.11	1.218	1.134	1.015	0.91	0.836

Conditions	refractive index
[2]	1.3594

CCCO [propan-1-ol] + CCCC[NH3+].O=[N+]([O-])[O-]
[3]
Conditions	mass density [kg/m3]	viscosity [mPa·s]
293.15 K	803.56	2.208
298.15 K	799.58	1.975
303.15 K	795.59	1.738
308.15 K	791.48	1.549
313.15 K	787.36	1.382

CCCCO [butan-1-ol] + CCCC[NH3+].O=[N+]([O-])[O-]
[3]
Conditions	mass density [kg/m3]	viscosity [mPa·s]
293.15 K	809.76	2.942
298.15 K	805.94	2.572
303.15 K	802.11	2.265
308.15 K	798.18	2.002
313.15 K	794.39	1.787

CO [methanol]
[1], 101.33 kPa
Conditions	mass density [kg/m3]	viscosity [mPa·s]
293.15 K	791.23	0.588
298.15 K	786.54	0.552
303.15 K	781.81	0.516
308.15 K	777.05	0.486
313.15 K	772.25	0.461

Conditions	refractive index
[2]	1.3264

CCCO [propan-1-ol]
[1], 101.33 kPa
Conditions	mass density [kg/m3]	viscosity [mPa·s]
293.15 K	803.56	2.208
298.15 K	799.58	1.975
303.15 K	795.59	1.738
308.15 K	791.48	1.549
313.15 K	787.36	1.382

Conditions	refractive index
[2]	1.3833

CCCC[NH3+].O=[N+]([O-])[O-] [n-butylammonium nitrate]
[1], 101.33 kPa
Conditions	mass density [kg/m3]	viscosity [mPa·s]
293.15 K	1104.68	111.35
298.15 K	1101.52	89.95
303.15 K	1098.38	73.04
308.15 K	1095.26	60.25
313.15 K	1092.17	50.12

Conditions	refractive index
[2]	1.4458
